Results as given in paper PMC3656107, “Polymorphisms in the F8 Gene and MHC-II Variants as Risk Factors for the Development of Inhibitory Anti-Factor VIII Antibodies during the Treatment of Hemophilia A: A Computational Assessment” (PLoS Computational Biology, 2013).
Several values for one entry are separate records, joined by “and”; a condition that tells them apart may be missing. Equal entries are not always repeated.

Tests used:
[1] = biological target: T1, MHC-II DRB1*11:01 (Homo sapiens, UniProt P01903+P01911, A100R/A169T/A87E/I96F/K41T/L162R/M171V/P40S/Q125H/Q178H/Q39Y/Q99D/R42S/S66Y/T262R/V115G/W38E); experiment: Cell-free REVEAL class II stability assay; conditions: half-life of peptide-MHC-II complex (h, capped at 120) x Binding Score / 100, conformational ELISA
T1 sequence (P01903 26-254 limits assumed, other chains not shown): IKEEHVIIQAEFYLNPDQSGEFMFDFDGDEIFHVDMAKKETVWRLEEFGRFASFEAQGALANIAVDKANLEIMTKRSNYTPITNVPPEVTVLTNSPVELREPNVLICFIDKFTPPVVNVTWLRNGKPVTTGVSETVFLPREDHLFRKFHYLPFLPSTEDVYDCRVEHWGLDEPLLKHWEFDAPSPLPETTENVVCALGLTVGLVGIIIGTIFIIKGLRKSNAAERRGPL
Description: (§1) We measured the half-life of each peptide-MHC-II complex using REVEAL peptide-MHC affinity assays developed by ProImmune Ltd. (Oxford, UK). On-rates of peptides were measured over a 96-hr period at 10°C. A unique positive control peptide was used for each MHC-II allele. Samples of assembling peptide-MHC complexes were taken at defined time points and snap-frozen in liquid nitrogen prior to analysis. Assembly of peptide-MHC complexes was detected using a conformational ELISA involving an anti-HLA antibody. On-rates were calculated by fitting data to a one-phase association curve: [drawing 1] To determine the off-rates of the peptides, samples of dissociating complexes were taken at defined time points and frozen in liquid nitrogen prior to analysis. Percent denaturation of peptide-MHC complexes was also detected using a conformational ELISA. Off-rates were calculated by fitting data to a one-phase dissociation curve: [drawing 2] On- and off-rate half-life values (t1/2) were calculated from the rate constant (k) using the following equation: [drawing 3] To obtain a normalized stability score, the half-life values were multiplied by the Binding Score (see above) and divided by 100.

[2] = biological target: T2, MHC-II DRB1*15:03 (Homo sapiens, UniProt P01903+P01911, Y59H); experiment: Cell-free REVEAL class II stability assay; conditions: half-life of peptide-MHC-II complex (h, capped at 120) x Binding Score / 100, conformational ELISA
T2 construct: purchased ProImmune
T2 sequence (P01903 26-254, other chains not shown): as the sequence (P01903 26-254 limits assumed, other chains not shown) above
Description: as §1

[3] = biological target: T3, MHC-II DRB1*04:01 (Homo sapiens, UniProt P01903+P01911, A100K/A169T/F76Y/I96L/K127E/L162R/M171V/N62H/P40V/Q125Y/R42H/S133A/S149N/S66Y/V115G/V209L/W38E); experiment: Cell-free REVEAL class II stability assay; conditions: half-life of peptide-MHC-II complex (h, capped at 120) x Binding Score / 100, conformational ELISA
Description: as §1

[4] = biological target: T4, MHC-II DRB1*15:01 (Homo sapiens, UniProt P01903+P01911); experiment: Cell-free REVEAL class II stability assay; conditions: half-life of peptide-MHC-II complex (h, capped at 120) x Binding Score / 100, conformational ELISA
T4 construct: purchased ProImmune
Description: as §1

[5] = biological target: T5, MHC-II DRB1*07:01 (Homo sapiens, UniProt P01903+P01911, A100R/A102G/A103Q/D57E/D86V/E43K/F76Y/K127E/L162R/M171V/P40G/Q125H/Q99D/R33Q/R42Y/R54Q/S133A/S66F/T210M/V115G/Y107V/Y59L/Y89S); experiment: Cell-free REVEAL class II stability assay; conditions: half-life of peptide-MHC-II complex (h, capped at 120) x Binding Score / 100, conformational ELISA
Description: as §1

[6] = biological target: T6, MHC-II DRB1*03:01 (Homo sapiens, UniProt P01903+P01911, A100K/A102G/A103R/A169T/F55Y/I96L/K41T/L162R/M171V/P40S/Q125H/Q178H/Q39Y/R42S/S66N/T106N/T262R/W38E/Y61H); experiment: Cell-free REVEAL class II stability assay; conditions: half-life of peptide-MHC-II complex (h, capped at 120) x Binding Score / 100, conformational ELISA
T6 sequence (P01903 26-254 limits assumed, other chains not shown): as above
Description: as §1

[7] = biological target: T1, MHC-II DRB1*11:01; experiment: Cell-free REVEAL class II binding assay; conditions: signal of test peptide as percentage of allele-specific positive control peptide, fluorescence, conformation-specific monoclonal antibody
Source text: (§2) We used a proprietary high throughput, REVEAL binding assay (ProImmune, www.proimmune.com) to estimate the binding of individual test peptides to the following MHC-II variants: DRB1*03:01, DRB1*04:01, DRB1*07:01, DRB1*11:01, DRB1*15:01 and DRB1*15:03 [28]. Detection of a peptide binding to each MHC-II protein is based on the presence or absence of the native conformation of the MHC-peptide complex. The peptide-MHC-II complex is detected by an increase in a fluorescence signal due to the binding of a specific monoclonal antibody. Each test-peptide is given a score relative to a positive control peptide, which is a known T-cell epitope for that MHC-II molecule. The score is reported quantitatively as a percentage of the signal generated by the test peptide compared with the positive control peptide. Assay performance is evaluated by including in each set of measurements an intermediate control peptide which is known to bind the MHC-II molecule but with a lower affinity than the positive control peptide. Note that the positive control peptide used to determine the binding score is different from the positive control peptides depicted in the figures, which are known T-cell epitopes identified in the FVIII molecule.

[8] = biological target: T2, MHC-II DRB1*15:03; experiment: Cell-free REVEAL class II binding assay; conditions: signal of test peptide as percentage of allele-specific positive control peptide, fluorescence, conformation-specific monoclonal antibody
Source text: as §2

[9] = biological target: T3, MHC-II DRB1*04:01; experiment: Cell-free REVEAL class II binding assay; conditions: signal of test peptide as percentage of allele-specific positive control peptide, fluorescence, conformation-specific monoclonal antibody
Source text: as §2

[10] = biological target: T4, MHC-II DRB1*15:01; experiment: Cell-free REVEAL class II binding assay; conditions: signal of test peptide as percentage of allele-specific positive control peptide, fluorescence, conformation-specific monoclonal antibody
Source text: as §2

[11] = biological target: T5, MHC-II DRB1*07:01; experiment: Cell-free REVEAL class II binding assay; conditions: signal of test peptide as percentage of allele-specific positive control peptide, fluorescence, conformation-specific monoclonal antibody
Source text: as §2

[12] = biological target: T6, MHC-II DRB1*03:01; experiment: Cell-free REVEAL class II binding assay; conditions: signal of test peptide as percentage of allele-specific positive control peptide, fluorescence, conformation-specific monoclonal antibody
Source text: as §2

AHRTPMPKIQNVSSS [synthetic wild type FVIII 15 mer peptide, region of ns-SNP R776G]
Stability Index [1]: 0.0
Stability Index [2]: 0.1
Stability Index [3]: 0.1
Stability Index [4]: 0.1
Stability Index [5]: 0.0
Stability Index [6]: 0.0
Binding Score [7]: 0.2%
Binding Score [8]: 0.4%
Binding Score [9]: 1.3%
Binding Score [10]: 0.0%
Binding Score [11]: 0.0%
Binding Score [12]: 0.0%

ASEGAEYDDQTSQRE [synthetic wild type FVIII 15 mer peptide]
Stability Index [1]: 0.0
Stability Index [2]: 0.0
Stability Index [3]: 0.0
Stability Index [4]: 0.0
Stability Index [5]: 0.0
Stability Index [6]: 0.0
Binding Score [7]: 0.0%
Binding Score [8]: 0.0%
Binding Score [9]: 0.0%
Binding Score [10]: 0.0%
Binding Score [11]: 0.0%
Binding Score [12]: 0.0%

AVGVSYWKASEGAEY [synthetic wild type FVIII 15 mer peptide]
Stability Index [1]: 0.0
Stability Index [2]: 0.0
Stability Index [3]: 0.4
Stability Index [4]: 1.0
Stability Index [5]: 0.0
Stability Index [6]: 0.0
Binding Score [7]: 0.3%
Binding Score [8]: 0.1%
Binding Score [9]: 2.0%
Binding Score [10]: 17.0%
Binding Score [11]: 0.0%
Binding Score [12]: 0.0%

AWRPQVNNPKEWLQV [synthetic wild type FVIII 15 mer peptide]
Stability Index [1]: 0.0
Stability Index [2]: 0.1
Stability Index [3]: 10.2
Stability Index [4]: 0.6
Stability Index [5]: 0.0
Stability Index [6]: 0.0
Binding Score [7]: 0.1%
Binding Score [8]: 0.2%
Binding Score [9]: 17.7%
Binding Score [10]: 0.5%
Binding Score [11]: 0.0%
Binding Score [12]: 0.0%

DGAYAPVLQDFRSLN [synthetic wild type FVIII 15 mer peptide, region of ns-SNP D1241E]
Stability Index [1]: 0.0
Stability Index [2]: 0.0
Stability Index [3]: 0.1
Stability Index [4]: 0.0
Stability Index [5]: 0.0
Stability Index [6]: 2.0
Binding Score [7]: 0.2%
Binding Score [8]: 0.1%
Binding Score [9]: 0.7%
Binding Score [10]: 0.0%
Binding Score [11]: 0.1%
Binding Score [12]: 11.1%

DIEKTDPWFAHRTPM [synthetic wild type FVIII 15 mer peptide, region of ns-SNP R776G]
Stability Index [1]: 0.2
Stability Index [2]: 0.0
Stability Index [3]: 0.4
Stability Index [4]: 0.2
Stability Index [5]: 0.0
Stability Index [6]: 0.0
Binding Score [7]: 7.3%
Binding Score [8]: 0.1%
Binding Score [9]: 7.6%
Binding Score [10]: 2.6%
Binding Score [11]: 0.0%
Binding Score [12]: 0.0%

DVRPLYSRRLPKGVK [synthetic wild type FVIII 15 mer peptide, region of ns-SNP R484H]
Stability Index [1]: 3.0
Stability Index [2]: 2.8
Stability Index [3]: 0.0
Stability Index [4]: 67.4
Stability Index [5]: 0.2
Stability Index [6]: 0.2
Binding Score [7]: 16.9%
Binding Score [8]: 2.4%
Binding Score [9]: 0.2%
Binding Score [10]: 56.2%
Binding Score [11]: 0.2%
Binding Score [12]: 0.1%

EWLQVDFQKTMKVTG [synthetic wild type FVIII 15 mer peptide, region of ns-SNP M2238V]
Stability Index [1]: 16.4 and 16.2
Stability Index [2]: 2.3 and 1.6
Stability Index [3]: 4.8 and 5.4
Stability Index [5]: 0.1 and 0.2
Stability Index [6]: 33.3 and 31.3
Binding Score [7]: 157.4% and 152.7%
Binding Score [8]: 24.1% and 17.6%
Binding Score [9]: 26.4% and 28.1%
Binding Score [11]: 0.1% and 0.2%
Binding Score [12]: 57.0% and 65.6%

FSSLYISQFIIMYSL [synthetic wild type FVIII 15 mer peptide]
Stability Index [1]: 0.0
Stability Index [2]: 0.1
Stability Index [3]: 0.4
Stability Index [4]: 28.0
Stability Index [5]: 0.0
Stability Index [6]: 0.0
Binding Score [7]: 0.3%
Binding Score [8]: 0.3%
Binding Score [9]: 1.5%
Binding Score [10]: 23.3%
Binding Score [11]: 0.0%
Binding Score [12]: 0.6%

GITDVRPLYSRRLPK [synthetic wild type FVIII 15 mer peptide, region of ns-SNP R484H]
Stability Index [1]: 0.6
Stability Index [2]: 3.1
Stability Index [3]: 0.1
Stability Index [4]: 34.9
Stability Index [5]: 0.6
Stability Index [6]: 3.7
Binding Score [7]: 13.2%
Binding Score [8]: 2.6%
Binding Score [9]: 0.8%
Binding Score [10]: 29.1%
Binding Score [11]: 2.0%
Binding Score [12]: 10.8%

NPPIIARYIRLHPTH [synthetic wild type FVIII 15 mer peptide]
Stability Index [1]: 6.3
Stability Index [2]: 18.2
Stability Index [3]: 3.1
Stability Index [4]: 1374.9
Stability Index [5]: 0.2
Stability Index [6]: 0.0
Binding Score [7]: 76.5%
Binding Score [8]: 15.2%
Binding Score [9]: 5.0%
Binding Score [11]: 0.2%
Binding Score [12]: 0.4%

PKEWLQVDFQKTMKV [synthetic wild type FVIII 15 mer peptide, region of ns-SNP M2238V]
Stability Index [1]: 0.3 and 0.2
Stability Index [2]: 0.0
Stability Index [3]: 0.3 and 0.2
Stability Index [5]: 0.0
Binding Score [7]: 8.6% and 4.2%
Binding Score [8]: 0.0%
Binding Score [9]: 5.1% and 4.1%
Binding Score [10]: 0.4% and 0.9%
Binding Score [11]: 0.0%
Binding Score [12]: 36.8% and 60.5%
